# Data published in patent publication US11053219B2, “Substituted pyridines as TYK2 inhibitors” (FronThera U.S. Pharmaceuticals LLC, priority 2018, dated 2021).
# Read-outs that look alike come from different tables or passages of the source.
# Assays:
# [1] = tested on: INFα induced pSTAT3 in human PBMC; assay: INFα induced pSTAT3 in human PBMC; format: cell-based; details: read-out: p-STAT3 IC50
# Experimental: Fresh Human PBMCs were resuspended in RPMI 1640 medium with 10% FBS. Cells were seeded in a round bottom 96-well plate at the concentration of 200,000 cells/well. A 10-point dilution series of test compound (top dose 10 uM, 1:5 dilution) was added to the well using the liquid dispenser (Tecan D300e) and incubated for 1 hour at 37 C. Then human INFα recombinant protein (R&D Systems) was added to the well at the final concentration of 5000 units/ml and incubated for 15 minutes at 37 C. Cell lysates were prepared and analyzed by Phospho STAT3 (Tyr705) cellular kit (Cisbio) or Phospho STAT5 (Tyr693) Kit (Meso Scale Discovery) following manufacturer's protocol.
# For calculation of the inhibition rate, the relative pSTAT signal of each well=pSTAT signal of each well−the average pSTAT signal of baseline. The inhibition %=(the average pSTAT signal of INFα treatment wells−the relative of pSTAT signal in each compound containing well)/the average pSTAT signal of INFα treatment wells*100%
# The curve was plotted as the inhibition % (y-axis) vs. compounds concentration (x-axis) and was fitted with log(inhibitor) vs. normalized response—Variable slope by GraphPad Prism7.0.
# TYK2 (JH2 domain) = TYK2 (JH2 domain) (Homo sapiens (Human), UniProt P29597); assay: TYK2 JH2 domain binding assay (DiscoverX KINOMEscan); details: 11-point 3-fold dilution, duplicate
# TYK2 (JH2 domain), sequence (P29597 589-875): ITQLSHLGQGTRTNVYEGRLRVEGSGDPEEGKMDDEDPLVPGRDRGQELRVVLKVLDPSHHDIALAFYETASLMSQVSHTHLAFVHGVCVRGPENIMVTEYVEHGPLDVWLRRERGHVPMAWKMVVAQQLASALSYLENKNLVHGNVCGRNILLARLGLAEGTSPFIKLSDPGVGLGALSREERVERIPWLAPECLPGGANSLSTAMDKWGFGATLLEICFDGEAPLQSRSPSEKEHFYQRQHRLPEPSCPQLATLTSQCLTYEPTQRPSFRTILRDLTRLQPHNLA
# [2] = tested on: IL12-induced p-STAT4 in human PBMC; assay: IL-12 induced pSTAT4 in human PBMC; format: cell-based; details: read-out: p-STAT4 IC50
# [3] = tested on: INFα induced pSTAT5 in human PBMC; assay: INFα induced pSTAT5 in human PBMC; format: cell-based; details: read-out: p-STAT5 IC50
Kd (TYK2 (JH2 domain)) [nM],SMILES,"IC50 ([1]; human PBMC, INFα 5000 units/ml) [nM]","IC50 ([2]; human PBMC, IL-12 10 ng/ml) [nM]","IC50 ([3]; human PBMC, INFα 5000 units/ml) [nM]","IC50 ([3]; Homo sapiens, PBMC) [nM]","IC50 ([2]; Homo sapiens, PBMC) [nM]","IC50 ([1]; Homo sapiens, PBMC) [nM]"
≤ 1,[2H]C([2H])([2H])NC(=O)c1nnc(N/C(=N/O)C2CC2)cc1Nc1cccc(-c2ncn(C)n2)c1OC [Example 40],100 to 1000,100 to 1000,–,–,–,–
≤ 1,[2H]C([2H])([2H])NC(=O)c1nnc(N2CCN(CC3CCOC3)C2=O)cc1Nc1cccc(-c2ncn(C)n2)c1OC (centres unmarked) [Example 71],100 to 1000,100 to 1000,–,–,–,–
–,COc1c(Nc2cc(NC(=O)C3CC3)ncc2C(=O)C2CC2)cccc1-c1ncn(C)n1 [Example 27],–,–,–,< 100,< 100,–
≤ 1,[2H]C([2H])([2H])NC(=O)c1nnc(N2CCN(C3CCOC3)C2=O)cc1Nc1cccc(-c2ncn(C)n2)c1OC (centres unmarked) [Example 80],< 100,< 100,–,–,–,–
1 to 5,CNC(=O)c1nnc(N2CCCC2=O)cc1Nc1cccc(-c2ncn(C)n2)c1OC [Example 59],1000 to 10000,1000 to 10000,–,–,–,–
≤ 1,[2H]C([2H])([2H])NC(=O)c1nnc(N2CCN(CC3CC3)C2=O)cc1Nc1cccc(-c2ncn(C)n2)c1OC [Example 68],< 100,< 100,–,–,–,–
≤ 1,[2H]C([2H])([2H])NC(=O)c1nnc(NC(=O)N2CC(C)C2)cc1Nc1cccc(-c2ncn(C)n2)c1OC [Example 49],–,< 100,< 100,–,–,–
1 to 5,[2H]C([2H])([2H])NC(=O)c1nnc(N2CC(F)(F)C2=O)cc1Nc1cccc(-c2ncn(C)n2)c1OC [Example 57],1000 to 10000,1000 to 10000,–,–,–,–
1 to 5,[2H]C([2H])([2H])NC(=O)c1nnc(N2CCOC2=O)cc1Nc1cccc(-c2ncn(C)n2)c1OC [Example 60],> 10000,> 10000,–,–,–,–
≤ 1,[2H]C([2H])([2H])NC(=O)c1nnc(N2CCN(CC3(C)COC3)C2=O)cc1Nc1cccc(-c2ncn(C)n2)c1OC [Example 72],100 to 1000,< 100,–,–,–,–
1 to 5,[2H]C([2H])([2H])NC(=O)c1nnc(N2CCCC2=O)cc1Nc1cccc(-c2ncn(C)n2)c1OC [Example 56],1000 to 10000,100 to 1000,–,–,–,–
1 to 5,COc1c(Nc2cc(NC(=O)C3CC3)nc3c2C2=NC(=O)CN2C3)cccc1-c1ncn(C)n1 [Example 41],1000 to 10000,1000 to 10000,–,–,–,–
≤ 1,[2H]C([2H])([2H])NC(=O)c1nnc(N2CCN(C3COC3)C2=O)cc1Nc1cccc(-c2ncn(C)n2)c1OC [Example 79],100 to 1000,100 to 1000,–,–,–,–
≤ 1,[2H]C([2H])([2H])NC(=O)c1nnc(N2CCN(C(C3CC3)C(F)(F)F)C2=O)cc1Nc1cccc(-c2ncn(C)n2)c1OC (centres unmarked) [Example 87],100 to 1000,< 100,–,–,–,–
≤ 1,[2H]C([2H])([2H])NC(=O)c1nnc(N2CCC(C)C2=O)cc1Nc1cccc(-c2ncn(C)n2)c1OC (centres unmarked) [Example 64],100 to 1000,100 to 1000,–,–,–,–
5 to 10,COc1c(Nc2cc(NC(=O)C3CC3)nc3c2C(=O)NC3)cccc1-c1ncn(C)n1 [Example 43],1000 to 10000,> 10000,–,–,–,–
≤ 1,[2H]C([2H])([2H])NC(=O)c1nnc(N2CCN(C(C)C#C)C2=O)cc1Nc1cccc(-c2ncn(C)n2)c1OC (centres unmarked) [Example 84],< 100,< 100,–,–,–,–
≤ 1,"[2H]C([2H])([2H])NC(=O)c1nnc(N2CCC3(CC3)C2=O)cc1Nc1cccc(-c2ncn(C)n2)c1OC [Example 4, 4-[2-methoxy-3-(1-methyl-1,2,4-triazol-3-yl)anilino]-6-(4-oxo-5-azaspiro[2.4]heptan-5-yl)-N-(trideuteriomethyl)pyridazine-3-carboxamide]",100 to 1000,< 100,–,–,–,–
≤ 1,[2H]C([2H])([2H])NC(=O)c1nnc(N2CCN(CC3CCCO3)C2=O)cc1Nc1cccc(-c2ncn(C)n2)c1OC (centres unmarked) [Example 74],< 100,< 100,–,–,–,–
≤ 1,"[2H]C([2H])([2H])NC(=O)c1nnc(N2CCN(C3CC(F)(F)C3)C2=O)cc1Nc1cccc(-c2ncn(C)n2)c1OC [Example 10, 6-[3-(3,3-difluorocyclobutyl)-2-oxo-imidazolidin-1-yl]-4-[2-methoxy-3-(1-methyl-1,2,4-triazol-3-yl)anilino]-N-(trideuteriomethyl)pyridazine-3-carboxamide]",–,< 100,< 100,–,–,–
–,"[2H]C([2H])([2H])NC(=O)c1nnc(N2CCC(C)(C)C2=O)cc1Nc1cccc(-c2ncn(C)n2)c1OC [Example 7, 6-(3,3-dimethyl-2-oxo-pyrrolidin-1-yl)-4-[2-methoxy-3-(1-methyl-1,2,4-triazol-3-yl)anilino]-N-(trideuteriomethyl)pyridazine-3-carboxamide]",100 to 1000,100 to 1000,–,–,–,–
1 to 5,[2H]C([2H])([2H])NC(=O)c1nnc(N2CCC(C#N)(C3CC3)C2=O)cc1Nc1cccc(-c2ncn(C)n2)c1OC (centres unmarked) [Example 61],1000 to 10000,1000 to 10000,–,–,–,–
≤ 1,"[2H]C([2H])([2H])NC(=O)c1nnc(N2CCN(C3CCC3)C2=O)cc1Nc1cccc(-c2ncn(C)n2)c1OC [Example 11, 6-(3-cyclobutyl-2-oxo-imidazolidin-1-yl)-4-[2-methoxy-3-(1-methyl-1,2,4-triazol-3-yl)anilino]-N-(trideuteriomethyl)pyridazine-3-carboxamide]",–,< 100,< 100,–,–,–
≤ 1,[2H]C([2H])([2H])NC(=O)c1nnc(N2CCN(C(C)(C)C)C2=O)cc1Nc1cccc(-c2ncn(C)n2)c1OC [Example 89],–,< 100,< 100,–,–,–
≤ 1,COc1c(Nc2cc(NC(=O)C3CC3)ncc2C(=O)C2CC2)cccc1-c1nnn(C)n1 [Example 51],–,< 100,< 100,–,–,–
–,"[2H]C([2H])([2H])NC(=O)c1nnc(N2CCN(C(C([2H])([2H])[2H])C([2H])([2H])[2H])C2=O)cc1Nc1cccc(-c2ncn(C)n2)c1OC [Example 13, 6-(3-isopropyl-2-oxo-imidazolidin-1-yl)-4-[2-methoxy-3-(1-methyl-1,2,4-triazol-3-yl)anilino]-N-(trideuteriomethyl)pyridazine-3-carboxamide]",–,–,–,–,< 100,< 100
≤ 1,"[2H]C([2H])([2H])NC(=O)c1nnc(N2CCN(C3(C)COC3)C2=O)cc1Nc1cccc(-c2ncn(C)n2)c1OC [Example 16, 4-[2-methoxy-3-(1-methyl-1,2,4-triazol-3-yl)anilino]-6-[3-(3-methyloxetan-3-yl)-2-oxo-imidazolidin-1-yl]-N-(trideuteriomethyl)pyridazine-3-carboxamide]",–,< 100,< 100,–,–,–
–,[2H]C([2H])([2H])n1cnc(-c2cccc(Nc3cc(NC(=O)C4CC4)ncc3C(=O)C3CC3)c2OC)n1 [Example 54],–,< 100,< 100,–,–,–

SMILES,Kd (TYK2 (JH2 domain)) [nM],"IC50 ([1]; human PBMC, INFα 5000 units/ml) [nM]","IC50 ([2]; human PBMC, IL-12 10 ng/ml) [nM]","IC50 ([3]; human PBMC, INFα 5000 units/ml) [nM]","IC50 ([3]; Homo sapiens, PBMC) [nM]","IC50 ([2]; Homo sapiens, PBMC) [nM]","IC50 ([1]; Homo sapiens, PBMC) [nM]"
"[2H]C([2H])([2H])NC(=O)c1nnc(N2CCN(C(C)C)C2=O)cc1Nc1cccc(-c2ncn(C([2H])([2H])[2H])n2)c1OC [Example 15, 6-(3-isopropyl-2-oxo-imidazolidin-1-yl)-4-[2-methoxy-3-[1-(trideuteriomethyl)-1,2,4-triazol-3-yl]anilino]-N-(trideuteriomethyl)pyridazine-3-carboxamide]",≤ 1,–,< 100,< 100,–,–,–
[2H]C([2H])([2H])NC(=O)c1c(Nc2cccc(-c3ncn(C)n3)c2OC)cc(NC(=O)C2CC2)nc1F [Example 23],≤ 1,100 to 1000,100 to 1000,–,–,–,–
CCC(=O)c1nnc(NC(=O)C2CC2)cc1Nc1cccc(-c2ncn(C)n2)c1OC [Example 25],≤ 1,100 to 1000,100 to 1000,–,–,–,–
COc1c(Nc2cc(Nc3ccccn3)ncc2C(=O)C2CC2)cccc1-c1ncn(C)n1 [Example 37],≤ 1,–,< 100,< 100,–,–,–
"[2H]C([2H])([2H])NC(=O)c1nnc(N2CCN(C(C)C)C2=O)cc1Nc1cccc(-c2ncn(C)n2)c1OC([2H])([2H])[2H] [Example 14, 6-(3-isopropyl-2-oxo-imidazolidin-1-yl)-4-[3-(1-methyl-1,2,4-triazol-3-yl)-2-(trideuteriomethoxy)anilino]-N-(trideuteriomethyl)pyridazine-3-carboxamide]",≤ 1,–,< 100,< 100,–,–,–
COc1c(Nc2cc(NC(=O)C3CC3)nnc2C(C)=O)cccc1-c1ncn(C)n1 [Example 24],1 to 5,100 to 1000,100 to 1000,–,–,–,–
"[2H]C([2H])([2H])NC(=O)c1nnc(N2CCN(C(C)C)C2=O)cc1Nc1cccc(-c2ncn(C)n2)c1OC [Example 6, 6-(3-isopropyl-2-oxo-imidazolidin-1-yl)-4-[2-methoxy-3-(1-methyl-1,2,4-triazol-3-yl)anilino]-N-(trideuteriomethyl)pyridazine-3-carboxamide]",≤ 1,–,–,< 100,–,< 100,–
